Reference: BigSolDB 2.1

Which results are given for `NCC1(CC(=O)O)CCCCC1`?
solubility (mole fraction) (in ethanol, 283.15 K): 0.00134; solubility (mole fraction) (in ethanol, 288.15 K): 0.00153; solubility (mole fraction) (in ethanol, 293.15 K): 0.0017; solubility (mole fraction) (in ethanol, 298.15 K): 0.00187; solubility (mole fraction) (in ethanol, 303.15 K): 0.00224; solubility (mole fraction) (in ethanol, 308.15 K): 0.00243; solubility (mole fraction) (in ethanol, 313.15 K): 0.00267; solubility (mole fraction) (in ethanol, 318.15 K): 0.003; solubility (mole fraction) (in ethanol, 323.15 K): 0.00329; solubility (mole fraction) (in methanol, 283.15 K): 0.00718; solubility (mole fraction) (in methanol, 288.15 K): 0.00795; solubility (mole fraction) (in methanol, 293.15 K): 0.00878; solubility (mole fraction) (in methanol, 298.15 K): 0.00943; solubility (mole fraction) (in methanol, 303.15 K): 0.0107; solubility (mole fraction) (in methanol, 308.15 K): 0.0117; solubility (mole fraction) (in methanol, 313.15 K): 0.0127; solubility (mole fraction) (in methanol, 318.15 K): 0.014; solubility (mole fraction) (in methanol, 323.15 K): 0.016

For `NCC1(CC(=O)O)CCCCC1.O`, which solubility (mole fraction) (in water, 283.15 K) is on record?
Its solubility (mole fraction) is 0.0093.

And the solubility (mole fraction) (in water, 288.15 K)?
The solubility (mole fraction) was 0.0106.

And the solubility (mole fraction) (in water, 293.15 K)?
Its solubility (mole fraction) is 0.0116.

What about the solubility (mole fraction) (in water, 298.15 K) of the same compound?
Its solubility (mole fraction) is 0.0124.

What about the solubility (mole fraction) (in water, 303.15 K) of the same compound?
The solubility (mole fraction) was 0.0137.

What about the solubility (mole fraction) (in water, 308.15 K) of the same compound?
The solubility (mole fraction) was 0.0152.

What about the solubility (mole fraction) (in water, 313.15 K) of the same compound?
Its solubility (mole fraction) is 0.0168.

And the solubility (mole fraction) (in water, 318.15 K)?
Its solubility (mole fraction) is 0.0189.

What about the solubility (mole fraction) (in water, 323.15 K) of the same compound?
Its solubility (mole fraction) is 0.0222.
